In ChEMBL document CHEMBL1201862, “PubChem BioAssay data set” (2004):
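Dose response: 5 concentrations. Exposure: 48 h. Format: 96-well plates. Endpoint: linear interpolation; highest concentration if not reached. GI50 = concentration required for 50% inhibition of growth.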 Calls of active or inactive are those of the source. Cut-off read from the data, not from the text of the source: active = GI50 up to about 1.1 µM and inactive = higher.

How the values were obtained:
Assay in all cases: growth of human tumour cells (NCI), 48 h
786-0 = tested on: 786-0
A498 = tested on: A498
A549 = tested on: A549
ACHN = tested on: ACHN
BT-549 = tested on: BT-549
CAKI-1 = tested on: CAKI-1
CCRF-CEM = tested on: CCRF-CEM
COLO 205 = tested on: COLO 205
DU-145 = tested on: DU-145
EKVX = tested on: EKVX
HCC 2998 = tested on: HCC 2998
HCT-116 = tested on: HCT-116
HCT-15 = tested on: HCT-15
HL-60 = tested on: HL-60
HOP-62 = tested on: HOP-62
HOP-92 = tested on: HOP-92
HT-29 = tested on: HT-29
Hs-578T = tested on: Hs-578T
IGROV-1 = tested on: IGROV-1
K562 = tested on: K562
KM12 = tested on: KM12
LOX IMVI = tested on: LOX IMVI
M14 = tested on: M14
MCF7 = tested on: MCF7
MDA-MB-231 = tested on: MDA-MB-231
MDA-MB-435 = tested on: MDA-MB-435
MDA-N = tested on: MDA-N
MOLT-4 = tested on: MOLT-4
Malme-3M = tested on: Malme-3M
NCI-H226 = tested on: NCI-H226
NCI-H23 = tested on: NCI-H23
NCI-H460 = tested on: NCI-H460
NCI-H522 = tested on: NCI-H522
NCI/ADR-RES = tested on: NCI/ADR-RES
OVCAR-3 = tested on: OVCAR-3
OVCAR-4 = tested on: OVCAR-4
OVCAR-5 = tested on: OVCAR-5
OVCAR-8 = tested on: OVCAR-8
PC-3 = tested on: PC-3
RPMI-8226 = tested on: RPMI-8226
RXF 393 = tested on: RXF 393
SF-268 = tested on: SF-268
SF-295 = tested on: SF-295
SF-539 = tested on: SF-539
SK-MEL-28 = tested on: SK-MEL-28
SK-MEL-2 = tested on: SK-MEL-2
SK-MEL-5 = tested on: SK-MEL-5
SK-OV-3 = tested on: SK-OV-3
SN12C = tested on: SN12C
SNB-19 = tested on: SNB-19
SNB-75 = tested on: SNB-75
SR = tested on: SR
SW-620 = tested on: SW-620
T47D = tested on: T47D
TK-10 = tested on: TK-10
U-251 = tested on: U-251
UACC-257 = tested on: UACC-257
UACC-62 = tested on: UACC-62
UO-31 = tested on: UO-31

## CC1C(c2ccc3c(c2)OCO3)c2cc3c(cc2OC1N1CCOCC1)OCO3 (configuration not stated)
786-0
  GI50: 31.6 µM (inactive)
A498
  GI50: 22.4 µM (inactive)
A549
  GI50: 26.6 µM (inactive)
ACHN
  GI50: 32.6 µM (inactive)
BT-549
  GI50: 20 µM (inactive)
CAKI-1
  GI50: 15.2 µM (inactive)
CCRF-CEM
  GI50: 19 µM (inactive)
COLO 205
  GI50: 21.1 µM (inactive)
DU-145
  GI50: 27.8 µM (inactive)
EKVX
  GI50: 37.3 µM (inactive)
HCC 2998
  GI50: 18.2 µM (inactive)
HCT-116
  GI50: 16 µM (inactive)
HCT-15
  GI50: 19.3 µM
HL-60
  GI50: 13.8 µM (inactive)
HOP-62
  GI50: 34.4 µM (inactive)
HOP-92
  GI50: 16.5 µM (inactive)
HT-29
  GI50: 28.7 µM (inactive)
Hs-578T
  GI50: 14.1 µM (inactive)
IGROV-1
  GI50: 28 µM (inactive)
K562
  GI50: 7.41 µM (inactive)
KM12
  GI50: 20.5 µM (inactive)
LOX IMVI
  GI50: 20.9 µM (inactive)
M14
  GI50: 24.7 µM (inactive)
MCF7
  GI50: 20.8 µM (inactive)
MDA-MB-231
  GI50: 18.4 µM (inactive)
MDA-MB-435
  GI50: 5.6 µM (inactive)
MDA-N
  GI50: 6.28 µM (inactive)
MOLT-4
  GI50: 16.7 µM (inactive)
Malme-3M
  GI50: 28.8 µM (inactive)
NCI-H226
  GI50: 22 µM (inactive)
NCI-H23
  GI50: 26.5 µM (inactive)
NCI-H460
  GI50: 29.2 µM (inactive)
NCI-H522
  GI50: 9.04 µM (inactive)
NCI/ADR-RES
  GI50: 15.8 µM (inactive)
OVCAR-3
  GI50: 20 µM (inactive)
OVCAR-4
  GI50: 28.8 µM (inactive)
OVCAR-5
  GI50: 46.2 µM (inactive)
OVCAR-8
  GI50: 32.5 µM (inactive)
PC-3
  GI50: 25.9 µM (inactive)
RPMI-8226
  GI50: 21 µM (inactive)
RXF 393
  GI50: 20.4 µM (inactive)
SF-268
  GI50: 31.3 µM (inactive)
SF-295
  GI50: 24 µM (inactive)
SF-539
  GI50: 18.3 µM (inactive)
SK-MEL-28
  GI50: 23.7 µM (inactive)
SK-MEL-2
  GI50: 19.9 µM (inactive)
SK-MEL-5
  GI50: 17 µM (inactive)
SK-OV-3
  GI50: 49.9 µM (inactive)
SN12C
  GI50: 33.1 µM (inactive)
SNB-19
  GI50: 16.4 µM (inactive)
SNB-75
  GI50: 32.8 µM (inactive)
SR
  GI50: 10.6 µM (inactive)
SW-620
  GI50: 25.9 µM (inactive)
T47D
  GI50: 13.6 µM (inactive)
TK-10
  GI50: 29.1 µM (inactive)
U-251
  GI50: 19.1 µM (inactive)
UACC-257
  GI50: 35.4 µM (inactive)
UACC-62
  GI50: 20.3 µM (inactive)
UO-31
  GI50: 18.1 µM (inactive)

## Cc1ccc(NC(=O)CSc2nc(O)nc3[nH]cnc23)cc1
786-0
  GI50: 44.6 µM (inactive)
A498
  GI50: 28.2 µM (inactive)
A549
  GI50: > 100 µM (inactive)
ACHN
  GI50: > 100 µM (inactive)
BT-549
  GI50: 54.5 µM (inactive)
CAKI-1
  GI50: > 100 µM (inactive)
CCRF-CEM
  GI50: 27.7 µM (inactive)
COLO 205
  GI50: > 100 µM (inactive)
DU-145
  GI50: > 100 µM (inactive)
EKVX
  GI50: > 100 µM (inactive)
HCC 2998
  GI50: > 100 µM (inactive)
HCT-116
  GI50: > 100 µM (inactive)
HCT-15
  GI50: > 100 µM
HL-60
  GI50: > 100 µM (inactive)
HOP-62
  GI50: 48.5 µM (inactive)
HOP-92
  GI50: > 100 µM (inactive)
HT-29
  GI50: > 100 µM (inactive)
Hs-578T
  GI50: 68.9 µM (inactive)
IGROV-1
  GI50: > 100 µM (inactive)
K562
  GI50: > 100 µM (inactive)
KM12
  GI50: > 100 µM (inactive)
LOX IMVI
  GI50: 35.6 µM (inactive)
M14
  GI50: > 100 µM (inactive)
MCF7
  GI50: 45.2 µM (inactive)
MDA-MB-231
  GI50: > 100 µM (inactive)
MDA-MB-435
  GI50: 53.8 µM (inactive)
MDA-N
  GI50: 90.2 µM (inactive)
MOLT-4
  GI50: 58.7 µM (inactive)
Malme-3M
  GI50: > 100 µM (inactive)
NCI-H226
  GI50: 33.8 µM (inactive)
NCI-H23
  GI50: > 100 µM (inactive)
NCI-H460
  GI50: > 100 µM (inactive)
NCI-H522
  GI50: > 100 µM (inactive)
NCI/ADR-RES
  GI50: 80.2 µM (inactive)
OVCAR-3
  GI50: > 100 µM (inactive)
OVCAR-4
  GI50: > 100 µM (inactive)
OVCAR-5
  GI50: 49.7 µM (inactive)
OVCAR-8
  GI50: > 100 µM (inactive)
PC-3
  GI50: 97.5 µM (inactive)
RPMI-8226
  GI50: 50.5 µM (inactive)
RXF 393
  GI50: > 100 µM (inactive)
SF-268
  GI50: 48.5 µM (inactive)
SF-295
  GI50: 62.7 µM (inactive)
SF-539
  GI50: 24 µM (inactive)
SK-MEL-28
  GI50: > 100 µM (inactive)
SK-MEL-2
  GI50: > 100 µM (inactive)
SK-MEL-5
  GI50: 86.9 µM (inactive)
SK-OV-3
  GI50: > 100 µM (inactive)
SN12C
  GI50: 30.5 µM (inactive)
SNB-19
  GI50: 68.7 µM (inactive)
SNB-75
  GI50: > 100 µM (inactive)
SR
  GI50: 35.6 µM (inactive)
SW-620
  GI50: 66.2 µM (inactive)
T47D
  GI50: > 100 µM (inactive)
TK-10
  GI50: > 100 µM (inactive)
U-251
  GI50: 41.1 µM (inactive)
UACC-257
  GI50: > 100 µM (inactive)
UACC-62
  GI50: > 100 µM (inactive)
UO-31
  GI50: > 100 µM (inactive)

## CNCCCNC1(c2cc3ccccc3s2)CCCCC1
786-0
  GI50: 3.47 µM (inactive)
A498
  GI50: 3.37 µM (inactive)
A549
  GI50: 7 µM (inactive)
ACHN
  GI50: 14 µM (inactive)
BT-549
  GI50: 14.6 µM (inactive)
CAKI-1
  GI50: 10.1 µM (inactive)
CCRF-CEM
  GI50: 1.66 µM (inactive)
COLO 205
  GI50: 1.79 µM (inactive)
DU-145
  GI50: 11.9 µM (inactive)
EKVX
  GI50: 13.3 µM (inactive)
HCC 2998
  GI50: 1.29 µM (inactive)
HCT-116
  GI50: 3.56 µM (inactive)
HCT-15
  GI50: 8.43 µM
HL-60
  GI50: 1.43 µM (inactive)
HOP-62
  GI50: 8.93 µM (inactive)
HOP-92
  GI50: 2.39 µM (inactive)
HT-29
  GI50: 2.46 µM (inactive)
Hs-578T
  GI50: 13.2 µM (inactive)
IGROV-1
  GI50: 12.8 µM (inactive)
K562
  GI50: 1.98 µM (inactive)
KM12
  GI50: 5.61 µM (inactive)
LOX IMVI
  GI50: 2.79 µM (inactive)
M14
  GI50: 3.8 µM (inactive)
MCF7
  GI50: 4.12 µM (inactive)
MDA-MB-231
  GI50: 2.99 µM (inactive)
MDA-MB-435
  GI50: 2.55 µM (inactive)
MDA-N
  GI50: 2.2 µM (inactive)
MOLT-4
  GI50: 1.94 µM (inactive)
Malme-3M
  GI50: 2.28 µM (inactive)
NCI-H226
  GI50: 19.5 µM (inactive)
NCI-H23
  GI50: 16.4 µM (inactive)
NCI-H460
  GI50: 2.86 µM (inactive)
NCI-H522
  GI50: 5.64 µM (inactive)
NCI/ADR-RES
  GI50: 14.9 µM (inactive)
OVCAR-3
  GI50: 12.5 µM (inactive)
OVCAR-4
  GI50: 13.5 µM (inactive)
OVCAR-5
  GI50: 14.3 µM (inactive)
OVCAR-8
  GI50: 14.5 µM (inactive)
PC-3
  GI50: 9.44 µM (inactive)
RPMI-8226
  GI50: 2.04 µM (inactive)
RXF 393
  GI50: 1.36 µM (inactive)
SF-268
  GI50: 11.3 µM (inactive)
SF-295
  GI50: 14.2 µM (inactive)
SF-539
  GI50: 2.36 µM (inactive)
SK-MEL-28
  GI50: 1.64 µM (inactive)
SK-MEL-2
  GI50: 4.59 µM (inactive)
SK-MEL-5
  GI50: 2.21 µM (inactive)
SK-OV-3
  GI50: 15.7 µM (inactive)
SN12C
  GI50: 5.52 µM (inactive)
SNB-19
  GI50: 12.1 µM (inactive)
SNB-75
  GI50: 6.17 µM (inactive)
SR
  GI50: 1.52 µM (inactive)
SW-620
  GI50: 12.3 µM (inactive)
T47D
  GI50: 4.92 µM (inactive)
TK-10
  GI50: 6.31 µM (inactive)
U-251
  GI50: 4.65 µM (inactive)
UACC-257
  GI50: 1.76 µM (inactive)
UACC-62
  GI50: 1.94 µM (inactive)
UO-31
  GI50: 2.32 µM (inactive)
